Data: patent US20240024280A1, “SENOTHERAPEUTIC SUBSTANCE” (BIONEXA S.R.L, priority 2020, published 2024)

Test system: senescent MCF7 cells
Test: Senolytic activity on doxorubicin-induced senescent MCF7 cells (crystal violet cell survival)
Type: cell-based, human
Details: 72 h treatment; vitamin C and palmitic acid administered alone at the same doses investigated
Description: Briefly, senescence of MCF7 human mammary epithelium cells (human breast adenocarcinoma cells, ATCC® HTB-22™) was induced in vitro by treatment with doxorubicin (for 24 h), at a non-apoptotic concentration (200 nM), and subsequent cell recovery (in optimal culture medium, without treatments) for 10 days. The successful conversion to the senescent cell phenotype was confirmed by morphological changes (flattening and cell enlargement) and positivity for lysosomal beta-galactosidase (β-GAL). The SA-β-GAL (senescence-associated p-GAL) senescence assay was performed with the SA-β-Gal Staining Kit (Cell Signaling Technology, Inc., Danvers, MA). In this case, after fixation with […] for 15 min at room temperature, the senescent cells were quantified by calculating the percentage of SA-β-GAL positive cells (colored blue) present in culture, examining ≥200 cells per well with the phase contrast microscope EVOS XL Cell Imaging System (Thermo Fisher; objective, 40×). […] At the end of the treatments, cell survival was quantified by crystal violet staining. […] After further washing with water (3×), 100 μl of acetic acid (10%) were added per well and the absorbance (λ=590 nm) measured with a Synergy spectrophotometer (AHSI). […] Senolytic activity was expressed as % of senescent cells eliminated with respect to the control condition (DMSO). […]

SMILES	senolytic effects (in words)
O=C1O[C@H]([C@@H](O)CO)C(O)=C1O [vitamin C, L-Ascorbic Acid]	absence of significant senolytic effects
CCCCCCCCCCCCCCCC(=O)O [palmitic acid]	absence of significant senolytic effects
